Residues, ends and D or L forms follow the SMILES beside them.
Experiments:
[1] = tested on: white unbred male mice; assay: Acute toxicity according to Kerber, single intramuscular administration; type: in vivo
Description: Possible toxic effects of L-Ala-L-Glu-L-Asp-L-Pro (SEQ ID NO:1) tetrapeptide on the organism were studied in compliance with “The rules of preclinical estimation of safety of pharacological agents” (GLP) approved by the Department of State Control on Medicinal Agents and Medical Equipment of the Russian Federation of Dec. 29, 1997.
Objective of the study consisted in defining the tolerable toxic drug doses of the agent, estimating the stage and character of pathologic alterations in various organs and systems and in exploring the correlation between the toxic effects and the dose and duration of the drug application.
Acute toxicity of L-Ala-L-Glu-L-Asp-L-Pro (SEQ ID NO:1) tetrapeptide was determined according to Kerber. The study was performed on 66 white unbred male mice weighing 20 to 23 g kept in vivarium under standard regimen and fed upon standard rations. The animals were randomly divided into 6 equal groups by 11 mice in each. The animals were subject to a single intramuscular administration of 0.25 ml of the preparation in doses 1 mg/kg, 2 mg/kg, 3 mg/kg, 4 mg/kg, 5 mg/kg (several thousand times exceeding the therapeutic dose recommended for clinical trials). The control animals were administered the similar amount of saline.

[2] = tested on: rats with severe craniocerebral compression; assay: Acute severe craniocerebral injury model (CRAA learning, rotating pivot); type: in vivo
Experimental: Effect of L-Ala-L-Glu-L-Asp-L-Pro tetrapeptide on repair processes in the brain was assessed on the model of acute severe craniocerebral injury. Dynamics of the CNS functional restoration was defined by the tests on the coordination of movements and muscular tonus of the animals as well as on their abilities for learning and reproduction of conditioned reflex skills.
Severe craniocerebral compression in the rats was caused by a falling lead weight. In 1, 12, 48 and 96 hours the experimental animals were intramuscularly injected with L-Ala-L-Glu-L-Asp-L-Pro tetrapeptide. Animals in the 2nd group received Cerebrolysin.
Abilities for learning and skill reproduction were estimated by the test on the conditioned reflex of active avoidance (CRAA). To estimate the muscular tonus and coordination of movements the rats were rotated on a pivot at an increasing speed. Simultaneously, the retention time was measured.

[3] = tested on: mice with compressed fibular nerve; assay: Regeneration of the compressed peripheral (fibular) nerve, electrophysiological tests; type: in vivo; settings: 10 μg/kg i.p. daily for 8 days
Experimental: The study was accomplished on 22 white unbred male mice weighing 25 to 30 g (7 experimental and 15 control animals).
At the 1st stage of the study, the mice were chronically operated on to compress the fibular nerve. The fibular nerve (n. peroneus communus) in the Nembutal-narcotised mice (60 mg/kg, intraperitoneally) was compressed at a distance of 8 to 9 mm from the innervated muscle—long digital extensor (m. extensor digitorum longus—EDL). The animals were operated on the left hind leg, whilst the corresponding nerve and muscle of the right leg were intact and used further as an intact control.
Afterwards, since the 3rd day after the nerve compression, the mice were intraperitoneally injected with L-Ala-L-Glu-L-Asp-L-Pro tetrapeptide in dose 10 μg/kg, daily for 8 days. The control mice were treated with an equivalent amount of saline.
On the 11th day after the nerve compression surgery (and within 24 hours after the last tetrapeptide injection), the Nembutal-narcotised mice (60 mg/kg) were subject in vivo to electrophysiological tests for different functional parameters of the already germinated nerve and reinnervated skeletal muscular fibres (EDL).

[4] = tested on: intact white mice; assay: Conditioned reflex of passive avoidance (CRPA) in intact mice; type: in vivo; settings: for Trained animals (%): i.p. 60 min. before the training
Experimental: Nootropic activity of L-Ala-L-Glu-L-Asp-L-Pro tetrapeptide was studied with the application of the conditioned reflex of passive avoidance (CRPA) in the intact animals and under the conditions of amnestic impacts (electroconvulsive treatment and ethanol intoxication).
The experiments were carried out on male mice weighing 20 to 24 g. For each animal the period of stay in dark and lighted chamber departments was registered during 2 min. before the training. […] The animals were trained by means of applying an electric pain stimulus in the preferred dark department, which lasted until the animal left this department. L-Ala-L-Glu-L-Asp-L-Pro tetrapeptide was introduced intraperitoneally 60 min. before the training. Testing was performed in 2 and 24 hours after the training. The period the animal stayed in the dark and lighted chamber departments and the number of animals not entering the dark department (“educated” animals) were recorded.

[5] = tested on: cerebral cortex explants; assay: Development of cerebral cortex explants (area index); type: cell-based, chicken embryos
Experimental: The experiments were carried out on 73 cerebral cortex fragments of 10–11 day old chicken embryos. Culture medium for the explants comprised 35% Eagle's solution, 25% foetal calf serum, 35% Henks' solution, 5% chicken embryonic extract. The medium was also added glucose (0.6%), insulin (0.5 IU/ml), penicillin (100 IU/ml), glutamine (2 mM). The cerebral cortex fragments were placed in the said medium and cultivated in Petri dishes in a thermostat at 36.7° C. for 2 days. L-Ala-L-Glu-L-Asp-L-Pro (SEQ ID NO:1) tetrapeptide and Cerebrolysin in concentrations 0.5, 1, 2, 20, 50, 100, 200, 400, 800, 1000 ng/ml were added into the experimental medium. Area index (AI) served as a criterion of biological activity and reflected the ratio of the entire explant area including the growth zone to the initial area of the cortex fragment. Student's t-criterion was applied to assess the significance of differences between the compared mean AI values. AI values were expressed percent. The control AI value was taken for 100%.
The growth zone of the control cortex explants included short axons, neuroglia cells migrating to the periphery and fibroblast-like cells.
Following series of experiments were performed to study the direct effect of the drugs on the cerebral cortex fragments.
Cerebrolysin in various concentrations was added to the culture medium of the cerebral cortex explants of the chicken embryos. […]

## C[C@H](N)C(=O)N[C@@H](CCC(=O)O)C(=O)N[C@@H](CC(=O)O)C(=O)N1CCC[C@H]1C(=O)O [L-Ala-L-Glu-L-Asp-L-Pro tetrapeptide, L-Alanyl-L-Glutamyl-L-Aspartyl-L-Proline] (H-AEDP-OH)
[1]; doses several thousand times exceeding the therapeutic one
  acute toxic reactions: did not induce any acute toxic reactions
[1]; single intramuscular 1-5 mg/kg
  alterations in the general state, behaviour, motional activity, hair and skin integument, physiologic discharges: No alterations
[1]; single intramuscular 1-5 mg/kg, within 72 hours and in 14 days
  death of mice: none of the mice in either of the groups died
[2]; 48 hours after the trauma
  time of retention on the rotating pivot relative to control: twice exceeded that in control
[2]; 96 hours after trauma, intramuscular in 1, 12, 48 and 96 hours
  number of trainable animals relative to controls (CRAA): twice as much as that in the controls
[2]; in 30 days
  indices of learning relative to control: higher than those in control
[3]; 11th day after nerve compression
  improvement of the electric threshold of the regenerating nerve: 30–50%
[3]; FIG. 3
  acetyl choline muscular contraction rate: tendency to diminish
[3]; intact neuromuscular system
  shortening of the latent M-response period: 89%
[3]; regenerating nerve (and the muscle)
  shortening of the latent M-response period: 59%
[4]; 2 hours after training
  Total period of stay in the dark chamber during 2 min.: 11.4 ± 5.2 s
  Trained animals (%): 86%
[4]; 24 hours after training
  Total period of stay in the dark chamber during 2 min.: 26.6 ± 5.9 s
  Trained animals (%): 68%
[5]; 20 ng/ml
  increase in the explant area index (AI) in comparison with control: 40±7%
[5]; effective concentration
  concentration stimulating cultivated cortical fragments: 20 ng/mL

From patent US7189701B1, “Tetrapeptide stimulating functional activity of neurons pharmacological agent based thereon and method of use thereof” (Sankt-Petersburgskaya Obschestvennaya Organizatsiya …, priority 1999, dated 2007)
